Test results reported in paper PMC9837035 (Nature Communications, 2023).
Values joined by “and” are separate entries in the source; they are usually repeats but may differ in a detail not shown here. Equal entries are not always repeated.

Key:
MLL4 [1] = molecular target: MLL4 (Homo sapiens, UniProt Q9UMN6); test: Radioisotope-based methyltransferase assay (selectivity); conditions: MLL4, 1 μM SAM
HUDEP-2 cells = test: RNA-seq analysis of HUDEP-2 cells; assay type: cell-based, human
Description: Total RNAs were extracted using an RNeasy Plus Mini Kit (QIAGEN). RNA-seq experiments were performed by GENEWIZ or Rhelixa. Gene Ontology (GO) analysis in Supplementary Fig. 7a, the statistical test was performed by Wallenius in goseq software. In Supplementary Tables 8(1-3), the statistical test (adjp) was determined using multiple comparisons analysis, Benjamini-Hochberg adjusted FDR test of the default of AltAnalyze (Ver. 2.0).

G9a = molecular target: T1, G9a (Homo sapiens, UniProt Q96KQ7); test: Kinetic analysis by ALPHA (IC50 vs H3 peptide or SAM); assay type: biochemical; set-up: purchased BPS Bioscience; conditions: for IC50: 3 replicates
T1 sequence (Q96KQ7 1-1210): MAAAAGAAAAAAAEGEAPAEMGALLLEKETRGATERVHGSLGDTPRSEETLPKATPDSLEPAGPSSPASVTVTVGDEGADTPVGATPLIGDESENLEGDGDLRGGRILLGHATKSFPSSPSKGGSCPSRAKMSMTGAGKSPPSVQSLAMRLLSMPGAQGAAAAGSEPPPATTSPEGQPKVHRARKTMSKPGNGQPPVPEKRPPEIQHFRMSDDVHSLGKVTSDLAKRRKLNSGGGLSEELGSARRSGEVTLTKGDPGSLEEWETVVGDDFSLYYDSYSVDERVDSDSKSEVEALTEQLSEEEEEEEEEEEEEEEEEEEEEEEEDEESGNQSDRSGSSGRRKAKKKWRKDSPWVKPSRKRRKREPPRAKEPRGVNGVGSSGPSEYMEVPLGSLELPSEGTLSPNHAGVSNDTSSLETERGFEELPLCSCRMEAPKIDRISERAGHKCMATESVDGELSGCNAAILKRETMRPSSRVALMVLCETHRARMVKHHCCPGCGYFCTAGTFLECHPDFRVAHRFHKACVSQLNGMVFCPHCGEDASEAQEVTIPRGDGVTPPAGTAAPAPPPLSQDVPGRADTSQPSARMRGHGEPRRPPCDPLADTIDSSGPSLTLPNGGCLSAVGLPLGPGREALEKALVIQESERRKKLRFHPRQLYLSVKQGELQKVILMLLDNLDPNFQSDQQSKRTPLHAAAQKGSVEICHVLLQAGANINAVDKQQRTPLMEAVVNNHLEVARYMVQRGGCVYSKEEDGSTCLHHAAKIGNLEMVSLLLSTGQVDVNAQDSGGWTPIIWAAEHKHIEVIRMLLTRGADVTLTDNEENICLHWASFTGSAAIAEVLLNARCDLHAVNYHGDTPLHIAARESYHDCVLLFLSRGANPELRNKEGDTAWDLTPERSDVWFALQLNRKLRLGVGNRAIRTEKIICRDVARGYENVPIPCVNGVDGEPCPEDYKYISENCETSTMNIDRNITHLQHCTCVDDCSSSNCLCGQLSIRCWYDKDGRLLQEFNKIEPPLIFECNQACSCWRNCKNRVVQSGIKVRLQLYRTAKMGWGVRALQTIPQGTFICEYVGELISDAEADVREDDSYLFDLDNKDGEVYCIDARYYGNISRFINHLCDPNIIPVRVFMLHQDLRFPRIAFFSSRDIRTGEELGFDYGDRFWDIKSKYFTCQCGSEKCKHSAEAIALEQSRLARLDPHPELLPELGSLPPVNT
Description: Kinetic analysis was measured by ALPHA. […] ALPHA profile was analyzed using Origin (OriginLab).

MLL4 [2] = test: Radioisotope-based methyltransferase assay (selectivity); conditions: MLL4, 1 μM SAM

Chain of MLL4 (Homo sapiens, UniProt Q9UMN6) (Q9UMN6 2490-2715): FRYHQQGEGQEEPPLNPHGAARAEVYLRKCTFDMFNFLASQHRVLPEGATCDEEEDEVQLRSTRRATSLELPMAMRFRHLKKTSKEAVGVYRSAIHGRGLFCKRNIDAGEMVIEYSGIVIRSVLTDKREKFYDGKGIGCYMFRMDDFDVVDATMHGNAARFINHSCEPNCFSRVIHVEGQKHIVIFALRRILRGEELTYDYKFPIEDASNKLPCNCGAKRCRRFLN
Chain of MLL4 (Homo sapiens, UniProt Q9UMN6) (Q9UBL3 whole entry, further chain): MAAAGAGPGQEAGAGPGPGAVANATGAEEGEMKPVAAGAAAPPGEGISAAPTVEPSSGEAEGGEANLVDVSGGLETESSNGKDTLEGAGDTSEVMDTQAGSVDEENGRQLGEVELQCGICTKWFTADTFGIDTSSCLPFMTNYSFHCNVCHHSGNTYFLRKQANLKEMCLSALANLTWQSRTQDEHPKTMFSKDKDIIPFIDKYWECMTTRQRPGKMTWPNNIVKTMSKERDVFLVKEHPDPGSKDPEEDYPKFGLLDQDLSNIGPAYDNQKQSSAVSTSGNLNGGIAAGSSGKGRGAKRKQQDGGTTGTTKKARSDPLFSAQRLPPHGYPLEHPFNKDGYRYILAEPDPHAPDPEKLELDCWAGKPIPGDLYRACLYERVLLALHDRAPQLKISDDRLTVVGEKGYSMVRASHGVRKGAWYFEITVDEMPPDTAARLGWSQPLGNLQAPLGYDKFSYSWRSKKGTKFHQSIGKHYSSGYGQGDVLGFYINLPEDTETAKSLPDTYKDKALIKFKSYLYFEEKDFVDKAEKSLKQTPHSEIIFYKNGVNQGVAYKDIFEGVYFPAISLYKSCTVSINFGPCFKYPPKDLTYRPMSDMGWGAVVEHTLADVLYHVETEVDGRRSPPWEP
Chain of MLL4 (Homo sapiens, UniProt Q9UMN6) (Q9C005 whole entry, further chain): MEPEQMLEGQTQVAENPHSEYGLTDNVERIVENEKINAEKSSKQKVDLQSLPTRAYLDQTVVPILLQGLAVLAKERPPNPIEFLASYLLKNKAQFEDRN
Chain of MLL4 (Homo sapiens, UniProt Q9UMN6) (Q15291 whole entry, further chain): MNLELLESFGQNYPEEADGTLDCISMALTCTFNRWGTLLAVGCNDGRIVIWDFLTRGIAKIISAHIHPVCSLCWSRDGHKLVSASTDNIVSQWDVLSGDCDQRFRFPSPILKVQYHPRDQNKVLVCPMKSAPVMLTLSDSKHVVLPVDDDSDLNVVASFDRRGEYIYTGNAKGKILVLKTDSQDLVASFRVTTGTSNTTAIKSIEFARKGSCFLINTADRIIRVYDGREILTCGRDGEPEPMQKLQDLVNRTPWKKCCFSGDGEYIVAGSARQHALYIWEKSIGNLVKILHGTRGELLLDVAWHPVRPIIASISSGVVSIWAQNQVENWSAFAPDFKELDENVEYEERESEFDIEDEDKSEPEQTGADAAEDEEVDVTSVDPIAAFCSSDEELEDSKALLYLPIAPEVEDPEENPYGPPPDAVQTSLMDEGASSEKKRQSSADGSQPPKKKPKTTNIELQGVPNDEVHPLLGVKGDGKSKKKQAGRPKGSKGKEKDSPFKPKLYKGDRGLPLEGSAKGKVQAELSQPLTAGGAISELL
Chain of MLL4 (Q9UMN6 2490-2715): as the sequence (Q9UMN6 2490-2715) above
Chain of MLL4 (Q9UBL3 whole entry, further chain): as the sequence (Q9UBL3 whole entry, further chain) above
Chain of MLL4 (Q9C005 whole entry, further chain): as the sequence (Q9C005 whole entry, further chain) above
Chain of MLL4 (Q15291 whole entry, further chain): as the sequence (Q15291 whole entry, further chain) above

## Nc1ncnc2c1ncn2[C@@H]1O[C@H](CSCC[C@H](N)C(=O)O)[C@@H](O)[C@H]1O [SAH, S-(5'-Adenosyl)-L-homocysteine, reference compound]
MLL4 [1]
  IC50: 1100 nM

## Cc1c(C(=O)NC(CCC2CC2)C(=O)Nc2ccc(C#N)cc2)[nH]c2c1C(=O)CC(C)(C)C2 (centres unmarked) [RK-701]
HUDEP-2 cells; HUDEP-2
  FoldChange BCL11A: 1.17±0.09
  FoldChange BGLT3: 3.40±0.34
  FoldChange CHD3: 0.88±0.02
  FoldChange CHD4: 1.00±0.02
  FoldChange DNMT1: 0.97±0.02
  FoldChange GATA1: 0.97±0.04
  FoldChange GATAD2A: 0.96±0.03
  FoldChange GATAD2B: 1.02±0.04
  FoldChange HBA1: 1.15±0.13
  FoldChange HBA2: 1.19±0.04
  FoldChange HBBP1: 0.99±0.02
  FoldChange HBD: 1.01±0.03
  FoldChange HBE1: 4.70±0.71
  FoldChange HBG1: 2.51±0.58
  FoldChange HBG2: 3.33±0.28
  FoldChange HBM: 0.96±0.04
  FoldChange HBQ1: 1.09±0.05
  FoldChange HBZ: 0.31±0.08
  FoldChange HDAC1: 0.96±0.03
  FoldChange HDAC2: 0.95±0.03
  FoldChange IKZF1: 1.07±0.01
  FoldChange KLF1: 1.02±0.02
  FoldChange LDB1: 1.03±0.04
  FoldChange LIN28B: 0.91±0.07
  FoldChange LMO2: 1.28±0.04
  FoldChange MBD2: 1.03±0.02
  FoldChange MBD3: 0.96±0.02
  FoldChange MIR26B: 0.96±0.78
  FoldChange MTA1: 0.92±0.04
  FoldChange MTA2: 0.95±0.02
  FoldChange MYB: 0.91±0.01
  FoldChange NR2C1: 1.11±0.04
  FoldChange NR2C2: 0.97±0.04
  FoldChange RBBP4: 0.96±0.03
  FoldChange RBBP7: 0.98±0.03
  FoldChange SOX6: 1.70±0.07
  FoldChange TAL1: 1.12±0.04
  FoldChange TCF3: 0.92±0.02
  FoldChange ZBTB7A: 0.98±0.04
  FoldChange ZFPM1: 0.90±0.09
  number of genes transcriptionally upregulated: 204 genes
HUDEP-2 cells; HUDEP-2, 1 μM, 4 days
  FoldChange HBB: 1.13±0.05
  log2FoldChange CTD-2643I7.1 (BGLT3): 1.72
  log2FoldChange HBE1: 2.16
  log2FoldChange HBG1: 1.23
  log2FoldChange HBG2: 1.73
  log2FoldChange HBZ: -1.67
G9a
  mode of inhibition, SAM: uncompetitive inhibition with respect to SAM
  mode of inhibition, histone H3 peptide: histone H3 substrate-competitive inhibitor
G9a; H3(1-21)-biotin 6.25 nM
  IC50: 9.85 nM and 9.46 nM and 8.82 nM
G9a; H3(1-21)-biotin 12.5 nM
  IC50: 8.26 nM and 13.4 nM and 10.5 nM
G9a; H3(1-21)-biotin 25 nM
  IC50: 11.7 nM and 18.2 nM and 17.3 nM
G9a; H3(1-21)-biotin 50 nM
  IC50: 20.2 nM and 32.1 nM and 26.2 nM
G9a; H3(1-21)-biotin 100 nM
  IC50: 34.8 nM and 34.6 nM and 31.4 nM
G9a; SAM 0.47 µM
  IC50: 154 nM and 149 nM and 150 nM
G9a; SAM 0.94 µM
  IC50: 65.3 nM and 98.6 nM and 43.1 nM
G9a; SAM 1.88 µM
  IC50: 30.6 nM and 57.4 nM and 24.3 nM
G9a; SAM 3.75 µM
  IC50: 23.5 nM and 39.6 nM and 21.1 nM
G9a; SAM 7.5 µM
  IC50: 27.8 nM and 38.9 nM and 11.8 nM
G9a; SAM 15 µM
  IC50: 25 nM and 37.5 nM and 12.8 nM
MLL4 [2]
  IC50: > 100000 nM
